Tested on: HBV
Experiment: HBV-DNA Antiviral Assay Using HepG2.117 Cells (intracellular HBV DNA by qPCR)
Type: cell-based, hepatitis B virus (genotype D)
Conditions: Hepatitis B virus, HepG2.117
Outline: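 HepG2.117 cells (genotype D HBV, Tet-off) were induced by doxycycline withdrawal and treated for 3 days with 9 concentrations in 4-fold dilution, 2% DMSO final. Intracellular HBV DNA was measured by qPCR against a standard curve, with ATPlite viability read in parallel. EC50, EC90 and CC50 came from fits against the DMSO control.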

COc1ccc(-n2c(C(=O)NCc3ccc(F)cc3C)c3n(c2=O)CCN(C(=O)c2ccc(Br)c(Cl)c2)C3)cc1 [Example 116, 7-(4-bromo-3-chloro-benzoyl)-N-[(4-fluoro-2-methyl-phenyl)methyl]-2-(4-methoxyphenyl)-3-oxo-6,8-dihydro-5H-imidazo[1,5-a]pyrazine-1-carboxamide]
EC50: 0.1 to 0.5 µM

COc1ccc(-n2c(C(=O)NCc3ccccc3)c3n(c2=O)CCN(c2ncnc4cc(Cl)ccc24)C3)cc1 [Example 117, N-benzyl-7-(7-chloroquinazolin-4-yl)-2-(4-methoxyphenyl)-3-oxo-6,8-dihydro-5H-imidazo[1,5-a]pyrazine-1-carboxamide]
EC50: > 5 µM

O=C(NCc1ccccc1)c1c2n(c(=O)n1-c1ccc3occc3c1)CCN(C(=O)c1ccc(Cl)c(Cl)c1)C2 [Example 120, 2-(benzofuran-5-yl)-N-benzyl-7-(3,4-dichlorobenzoyl)-3-oxo-6,8-dihydro-5H-imidazo[1,5-a]pyrazine-1-carboxamide]
EC50: 0.5 to 5 µM

O=C(NCc1ccccc1)c1c2n(c(=O)n1-c1ccc(OC(F)F)cc1)CCN(C(=O)c1ccc(Cl)c(Cl)c1)C2 [Example 121, N-benzyl-7-(3,4-dichlorobenzoyl)-2-[4-(difluoromethoxy)phenyl]-3-oxo-6,8-dihydro-5H-imidazo[1,5-a]pyrazine-1-carboxamide]
EC50: 0.5 to 5 µM

Cc1ccc(-n2c(C(=O)NCc3ccccc3)c3n(c2=O)CCN(C(=O)c2ccc(Cl)c(Cl)c2)C3)cc1 [Example 122, N-benzyl-7-(3,4-dichlorobenzoyl)-3-oxo-2-(p-tolyl)-6,8-dihydro-5H-imidazo[1,5-a]pyrazine-1-carboxamide]
EC50: 0.5 to 5 µM

Cc1ccc(-n2c(C(=O)NCc3ccccc3)c3n(c2=O)CCN(C(=O)c2ccc(Br)c(Cl)c2)C3)cc1 [Example 123, N-benzyl-7-(4-bromo-3-chloro-benzoyl)-3-oxo-2-(p-tolyl)-6,8-dihydro-5H-imidazo[1,5-a]pyrazine-1-carboxamide]
EC50: 0.1 to 0.5 µM

COc1ccc(-n2c(C(=O)NCc3ccccc3)c3n(c2=O)CCN(C(=O)c2ccc(Cl)c(Cl)c2)C3)cc1C [Example 124, N-benzyl-7-(3,4-dichlorobenzoyl)-2-(4-methoxy-3-methyl-phenyl)-3-oxo-6,8-dihydro-5H-imidazo[1,5-a]pyrazine-1-carboxamide]
EC50: 0.5 to 5 µM

COc1ccc(-n2c(C(=O)NCc3cccc(F)c3)c3n(c2=O)CCN(C(=O)c2ccc(Br)c(Cl)c2)C3)cc1 [Example 125, 7-(4-bromo-3-chloro-benzoyl)-N-[(3-fluorophenyl)methyl]-2-(4-methoxyphenyl)-3-oxo-6,8-dihydro-5H-imidazo[1,5-a]pyrazine-1-carboxamide]
EC50: 0.1 to 0.5 µM

COc1ccc(-n2c(C(=O)NCc3cccc(C(N)=O)c3)c3n(c2=O)CCN(C(=O)c2ccc(Cl)c(Cl)c2)C3)cc1 [Example 126, N-[(3-carbamoylphenyl)methyl]-7-(3,4-dichlorobenzoyl)-2-(4-methoxyphenyl)-3-oxo-6,8-dihydro-5H-imidazo[1,5-a]pyrazine-1-carboxamide]
EC50: > 5 µM

O=C(NCc1ccccc1)c1c2n(c(=O)n1-c1ccc(OC(F)(F)F)cc1)CCN(C(=O)c1ccc(Cl)c(Cl)c1)C2 [Example 131, N-benzyl-7-(3,4-dichlorobenzoyl)-3-oxo-2-[4-(trifluoromethoxy)phenyl]-6,8-dihydro-5H-imidazo[1,5-a]pyrazine-1-carboxamide]
EC50: > 5 µM

COc1ccc(CN2C/C=C\Cn3c(c4n(c3=O)CCN(C(=O)c3ccc(Br)c(Cl)c3)C4)C2=O)cc1 [Example 132, (11Z)-4-(4-bromo-3-chloro-benzoyl)-14-[(4-methoxyphenyl)methyl]-4,7,9,14-tetrazatricyclo[7.6.0.0^2,7]pentadeca-1,11-diene-8.15-dione]
EC50: 0.1 to 0.5 µM

O=C(c1ccc(Br)c(Cl)c1)N1CCn2c(c3n(c2=O)CCCN(CC2CC2)C3=O)C1 [Example 133, 4-(4-bromo-3-chloro-benzoyl)-13-(cyclopropylmethyl)-4,7,9,13-tetrazatricyclo[7.5.0.0^2,7]tetradec-1-ene-8.14-dione]
EC50: > 5 µM

CC(C)CN1CCCn2c(c3n(c2=O)CCN(C(=O)c2ccc(Br)c(Cl)c2)C3)C1=O [Example 134, 4-(4-bromo-3-chloro-benzoyl)-13-isobutyl-4,7,9,13-tetrazatricyclo[7.5.0.0^2,7]tetradec-1-ene-8.14-dione]
EC50: > 5 µM

COc1ccc(CN2CCCCn3c(c4n(c3=O)CCN(C(=O)c3ccc(Br)c(Cl)c3)C4)C2=O)cc1 [Example 135, 4-(4-bromo-3-chloro-benzoyl)-14-[(4-methoxyphenyl)methyl]-4,7,9,14-tetrazatricyclo[7.6.0.0^2,7]pentadec-1-ene-8.15-dione]
EC50: 0.5 to 5 µM

O=C(NCc1ccccc1)c1c2n(c(=O)n1-c1ncccn1)CCN(C(=O)c1ccc(Cl)c(Cl)c1)C2 [Example 138, N-benzyl-7-(3,4-dichlorobenzoyl)-3-oxo-2-pyrimidin-2-yl-6,8-dihydro-5H-imidazo[1,5-a]pyrazine-1-carboxamide]
EC50: > 5 µM

COc1ccc(-n2c(C(=O)NCc3ccc(Cl)cc3)c3n(c2=O)CCN(C(=O)c2ccc(Br)c(Cl)c2)C3)cc1 [Example 139, 7-(4-bromo-3-chloro-benozyl)-N-[(4-chlorophenyl)methyl]-2-(4-methoxyphenyl)-3-oxo-6,8-dihydro-5H-imidazo[1,5-a]pyrazine-1-carboxamide]
EC50: 0.1 to 0.5 µM

COc1ccc(-n2c(C(=O)NCc3ccc(C(F)(F)F)cc3)c3n(c2=O)CCN(C(=O)c2ccc(Br)c(Cl)c2)C3)cc1 [Example 140, 7-(4-bromo-3-chloro-benzoyl)-2-(4-methoxyphenyl)-3-oxo-N-[[4-(trifluoromethyl)phenyl]methyl]-6,8-dihydro-5H-imidazo[1,5-a]pyrazine-1-carboxamide]
EC50: 0.5 to 5 µM

COc1ccc(-n2c(C(=O)NC(C)c3ccc(F)cc3)c3n(c2=O)CCN(C(=O)c2ccc(Br)c(Cl)c2)C3)cc1 (stereo not shown) [Example 141, 7-(4-bromo-3-chloro-benzoyl)-N-[1-(4-fluorophenyl)ethyl]-2-(4-methoxyphenyl)-3-oxo-6,8-dihydro-5H-imidazo[1,5-a]pyrazine-1-carboxamide]
EC50: 0.1 to 0.5 µM

COc1ccc(-n2c(C(=O)NCc3ccc(C(C)C)cc3)c3n(c2=O)CCN(C(=O)c2ccc(Br)c(Cl)c2)C3)cc1 [Example 142, 7-(4-bromo-3-chloro-benzoyl)-N-[(4-isopropylphenyl)methyl]-2-(4-methoxyphenyl)-3-oxo-6,8-dihydro-5H-imidazo[1,5-a]pyrazine-1-carboxamide]
EC50: 0.1 to 0.5 µM

COc1ccc(-n2c(C(=O)NCc3ccc(OC)cc3OC)c3n(c2=O)CCN(C(=O)c2ccc(Br)c(Cl)c2)C3)cc1 [Example 143, 7-(4-bromo-3-chloro-benzoyl)-N-[(2,4-dimethoxyphenyl)methyl]-2-(4-methoxyphenyl)-3-oxo-6,8-dihydro-5H-imidazo[1,5-a]pyrazine-1-carboxamide]
EC50: < 0.1 µM

COc1ccc(-n2c(C(=O)NCc3ccc(OC(F)F)cc3)c3n(c2=O)CCN(C(=O)c2ccc(Br)c(Cl)c2)C3)cc1 [Example 148, 7-(4-bromo-3-chloro-benzoyl)-N-[[4-(difluoromethoxy)phenyl]methyl]-2-(4-methoxyphenyl)-3-oxo-6,8-dihydro-5H-imidazo[1,5-a]pyrazine-1-carboxamide]
EC50: 0.1 to 0.5 µM

COc1ccc(-n2c(C(=O)NCc3cccc(C(F)(F)F)c3)c3n(c2=O)CCN(C(=O)c2ccc(Br)c(Cl)c2)C3)cc1 [Example 152, 7-(4-bromo-3-chloro-benzoyl)-2-(4-methoxyphenyl)-3-oxo-N-[[3-(trifluoromethyl)phenyl]methyl]-6,8-dihydro-5H-imidazo[1,5-a]pyrazine-1-carboxamide]
EC50: 0.1 to 0.5 µM

COc1ccc(-n2c(C(=O)NCc3cc(OC)cc(OC)c3)c3n(c2=O)CCN(C(=O)c2ccc(Br)c(Cl)c2)C3)cc1 [Example 153, 7-(4-bromo-3-chloro-benzoyl)-N-[(3,5-dimethoxyphenyl)methyl]-2-(4-methoxyphenyl)-3-oxo-6,8-dihydro-5H-imidazo[1,5-a]pyrazine-1-carboxamide]
EC50: 0.1 to 0.5 µM

COc1ccc(-n2c(C(=O)NCc3ccccc3C#N)c3n(c2=O)CCN(C(=O)c2ccc(Br)c(Cl)c2)C3)cc1 [Example 154, 7-(4-bromo-3-chloro-benzoyl)-N-[(2-cyanophenyl)methyl]-2-(4-methoxyphenyl)-3-oxo-6,8-dihydro-5H-imidazo[1,5-a]pyrazine-1-carboxamide]
EC50: 0.1 to 0.5 µM

COc1ccc(-n2c(C(=O)NCc3cccc(OC)c3C)c3n(c2=O)CCN(C(=O)c2ccc(Br)c(Cl)c2)C3)cc1 [Example 155, 7-(4-bromo-3-chloro-benzoyl)-N-[(3-methoxy-2-methyl-phenyl)methyl]-2-(4-methoxyphenyl)-3-oxo-6,8-dihydro-5H-imidazo[1,5-a]pyrazine-1-carboxamide]
EC50: 0.1 to 0.5 µM

COc1ccc(-n2c(C(=O)NCc3ccc(OC(C)C)cc3)c3n(c2=O)CCN(C(=O)c2ccc(Br)c(Cl)c2)C3)cc1 [Example 156, 7-(4-bromo-3-chloro-benzoyl)-N-[(4-isopropoxyphenyl)methyl]-2-(4-methoxyphenyl)-3-oxo-6,8-dihydro-5H-imidazo[1,5-a]pyrazine-1-carboxamide]
EC50: 0.1 to 0.5 µM

COc1ccc(-n2c(C(=O)NCc3ncccn3)c3n(c2=O)CCN(C(=O)c2ccc(Br)c(Cl)c2)C3)cc1 [Example 157, 7-(4-bromo-3-chloro-benzoyl)-2-(4-methoxyphenyl)-3-oxo-N-(pyrimidin-2-ylmethyl)-6,8-dihydro-5H-imidazo[1,5-a]pyrazine-1-carboxamide]
EC50: > 5 µM

COc1ccc(-n2c(C(=O)NCc3ccc(OC(F)(F)F)cc3)c3n(c2=O)CCN(C(=O)c2ccc(Br)c(Cl)c2)C3)cc1 [Example 158, 7-(4-bromo-3-chloro-benzoyl)-2-(4-methoxyphenyl)-3-oxo-N-[[4-(trifluoromethoxy)phenyl]methyl]-6,8-dihydro-5H-imidazo[1,5-a]pyrazine-1-carboxamide]
EC50: 0.1 to 0.5 µM

— patent publication US11591341B2 (ALIGOS THERAPEUTICS, INC., priority 2019, dated 2023)
